Results on 8 compounds are retold here after ChEMBL document CHEMBL5532705, “Bioactivity-Based Molecular Networking-Guided Isolation of Epicolidines A-C from the Endophytic Fungus Epicoccum sp. 1-042” (2024).

Numbered stars: 1 amine (or outer) side, 2 acyl side, 3 side chain; on linkers, the order of the positions; unused ones are H or OH. Bridge positions count the residues as written; N and C are the ends. Square brackets hold non-standard residues; d marks the D form. Peptide text beside a SMILES is read from it. * marks the point of attachment. X1 = O=C1C[C@@H](C(=O)[*:2])N([*:1])C[C@H]1CS[C@@H]1CN2CCC1CC2; NMePhe(4-NMe2) = CN[C@@H](Cc1ccc(N(C)C)cc1)C(=O)O; Picolinoyl(3-OH) = O=C(c1ncccc1O)*; Phg = N[C@H](C(=O)O)c1ccccc1; dAbu = CC[C@@H](N)C(=O)O

Holding throughout (assay type): functional
Experiment [1] relates to Enterococcus faecium. Kind of experiment: Antimicrobial activity against vancomycin resistant Enterococcus faecium 310682 assessed as inhibition of microbial growth incubated for 16 hrs in presence of dalfopristin by broth microdilution method.
Experiment [2] has as its system Staphylococcus aureus. Kind of experiment: Antimicrobial activity against Staphylococcus aureus ATCC 29213 assessed as inhibition of microbial growth incubated for 16 hrs by broth microdilution method.
For experiment [3], the system named is Candida albicans. Nature of the experiment: Antimicrobial activity against Candida albicans ATCC 10231 assessed as inhibition of microbial growth incubated for 16 hrs by broth microdilution method.
In experiment [4] the test system is Candida tropicalis. Nature of the experiment: Antimicrobial activity against Candida tropicalis ATCC 1369 assessed as inhibition of microbial growth incubated for 16 hrs by broth microdilution method.
Experiment [5] concerns Enterococcus faecium. Nature of the experiment: Antibacterial activity against vancomycin resistant Enterococcus faecium 310682 infected in Galleria mellonella last-instar larvae assessed as survival at 1 mg/kg measured after 1 day (reference value: 30%). The following applies: Enterococcus faecium, 310682, 24 h.
Experiment [6] relates to Escherichia coli. Kind of experiment: Antimicrobial activity against Escherichia coli ATCC 25922 assessed as inhibition of microbial growth incubated for 16 hrs by broth microdilution method.
Experiment [7] relates to Enterococcus faecium. Kind of experiment: Antibacterial activity against vancomycin resistant Enterococcus faecium 310682 infected in Galleria mellonella last-instar larvae assessed as survival at 0.20 mg/kg measured after 1 day (reference value: 30%). The following applies: Enterococcus faecium, 310682, 24 h.
The test system of experiment [8] is Pseudomonas aeruginosa. Kind of experiment: Antimicrobial activity against Pseudomonas aeruginosa ATCC 27853 assessed as inhibition of microbial growth incubated for 16 hrs by broth microdilution method.
The test system of experiment [9] is Enterococcus faecium. Kind of experiment: Antimicrobial activity against vancomycin resistant Enterococcus faecium 310682 assessed as inhibition of microbial growth incubated for 16 hrs by broth microdilution method.
Experiment [10] deals with Enterococcus faecium. Nature of the experiment: Antimicrobial activity against Enterococcus faecium ATCC 35667 assessed as inhibition of microbial growth incubated for 16 hrs by broth microdilution method.
The subject of experiment [11] is Staphylococcus aureus. Kind of experiment: Antimicrobial activity against methicillin resistant Staphylococcus aureus 181404 assessed as inhibition of microbial growth incubated for 16 hrs by broth microdilution method.
Experiment [12] deals with Klebsiella pneumoniae. Kind of experiment: Antimicrobial activity against Klebsiella pneumoniae ATCC 700603 assessed as inhibition of microbial growth incubated for 16 hrs by broth microdilution method.
The subject of experiment [13] is Enterococcus faecium. Nature of the experiment: Antibacterial activity against vancomycin resistant Enterococcus faecium 310682 infected in Galleria mellonella last-instar larvae assessed as survival at 10 mg/kg measured after 1 day (reference value: 30%). The following applies: Enterococcus faecium, 310682, 24 h.
Experiment [14] has as its system Enterococcus faecium. Kind of experiment: Antimicrobial activity against vancomycin resistant Enterococcus faecium 310682 assessed as inhibition of microbial growth incubated for 16 hrs in presence of quinupristin by broth microdilution method.

In the case of `CC[C@H]1NC(=O)[C@@H](NC(=O)c2ncccc2O)[C@@H](C)OC(=O)[C@H](c2ccccc2)NC(=O)[C@@H]2CC(=O)[C@H](CS[C@@H]3CN4CCC3CC4)CN2C(=O)[C@H](Cc2ccc(N(C)C)cc2)N(C)C(=O)[C@@H]2CCCN2C1=O` [QUINUPRISTIN] ({Picolinoyl(3-OH)}-T[dAbu]P[NMePhe(4-NMe2)][X1][Phg]; ester 1-C), in experiment [1], the MIC turned out to be 0.5 µg/mL.

Regarding `CC[C@H](C)[C@H]1C(=O)/C(=C(/O)[C@H]2[C@@H]3[C@H](C)C[C@H](C)C[C@@H]3C=C[C@@H]2[C@]2(C)O[C@H]2C)C(=O)N1C`, the MIC in experiment [2] is 0.25 µg/mL; in experiment [3], 8 µg/mL; in experiment [4] it was greater than 128 µg/mL; in [6], greater than 128 µg/mL; in [8], greater than 128 µg/mL; in experiment [9], 0.25 µg/mL. Further, the figures for the MIC in experiment [10], in experiment [11] and in experiment [12] were 1 µg/mL, 0.5 µg/mL and greater than 128 µg/mL, respectively. The survival at 1 mg/kg in experiment [5] came out at 40%. The survival at 0.2 mg/kg in experiment [7] is 0%. The survival at 10 mg/kg in experiment [13] came out at 100%.

In the case of `C=C([C@H](C)O)[C@H]1C=C[C@H]2C[C@@H](C)C[C@@H](C)[C@H]2[C@@H]1/C(O)=C1\C(=O)[C@H]([C@@H](C)CC)N(C)C1=O`, the MIC in experiment [2] is 2 µg/mL; in experiment [3] it was 128 µg/mL; in experiment [4], greater than 128 µg/mL; in [6] it was greater than 128 µg/mL; in experiment [8] it was greater than 128 µg/mL; in [9], 2 µg/mL. Besides, the minimum inhibitory concentration (MIC) in experiment [10] was 8 µg/mL; in experiment [11], 2 µg/mL; in experiment [12] it was greater than 128 µg/mL.

Take `C[C@@H](O)[C@H]1C(=O)N2C(C(=O)O)=C(S[C@@H]3CN[C@H](C(=O)N(C)C)C3)[C@H](C)[C@H]12` [MEROPENEM]: the MIC was 2 µg/mL in [2]; 0.5 µg/mL in [6]; 16 µg/mL in [8]; greater than 16 µg/mL in [9]; greater than 16 µg/mL in experiment [10]; greater than 16 µg/mL in experiment [11]. Besides, the MIC in [12] was 2 µg/mL.

For the compound `OC(Cn1cncn1)(Cn1cncn1)c1ccc(F)cc1F` [FLUCONAZOLE], the MIC in experiment [3] was found to be 8 µg/mL; in experiment [4], 2 µg/mL.

Take `CC[C@H](C)[C@@H]1N(C)C(=O)[C@H]2C(=O)[C@H]3[C@@H]4[C@H](C)C[C@H](C)C[C@@H]4C=C[C@@H]3[C@@]3(C)O[C@]21O[C@H]3C`: the MIC was 64 µg/mL in [2]; greater than 128 µg/mL in experiment [3]; greater than 128 µg/mL in [4]; greater than 128 µg/mL in experiment [6]; greater than 128 µg/mL in experiment [8]; 16 µg/mL in experiment [9]. Further, the MIC in experiment [10] is 64 µg/mL; in [11], 16 µg/mL; in [12], greater than 128 µg/mL.

Turning to `CCN(CC)CCS(=O)(=O)[C@@H]1CCN2C(=O)c3coc(n3)CC(=O)C[C@H](O)/C=C(C)/C=C/CNC(=O)/C=C/[C@@H](C)[C@@H](C(C)C)OC(=O)[C@@H]12` [DALFOPRISTIN], the MIC in experiment [14] was 0.5 µg/mL.

Turning to `CN[C@H](CC(C)C)C(=O)N[C@H]1C(=O)N[C@@H](CC(N)=O)C(=O)N[C@H]2C(=O)N[C@H]3C(=O)N[C@H](C(=O)N[C@H](C(=O)O)c4cc(O)cc(O)c4-c4cc3ccc4O)[C@H](O)c3ccc(c(Cl)c3)Oc3cc2cc(c3O[C@@H]2O[C@H](CO)[C@@H](O)[C@H](O)[C@H]2O[C@H]2C[C@](C)(N)[C@H](O)[C@H](C)O2)Oc2ccc(cc2Cl)[C@H]1O` [VANCOMYCIN], the minimum inhibitory concentration (MIC) was greater than 16 µg/mL in [9] and 0.25 µg/mL in experiment [11].
